Experimental data reported in US20230217926A1, “SELECTIVE HERBICIDES BASED ON SUBSTITUTED ISOXAZOLIN CARBOXAMIDES AND ISOXADIFEN-ETHYL” (BAYER AKTIENGESELLSCHAFT, priority 2020, published 2023).
Where “and” joins values, the source holds several entries; their conditions need not be identical. Identical values can stand only once.

What was measured:
ZEAMA Sileno [1] = assay: Tank-mix post-emergence crop damage, greenhouse, visual assessment; type: in vivo, maize; set-up: key to Reduction [Difference]: % points: herbicide damage without safener − damage with safener; conditions: for HER effect + SAF / Reduction [%] / Reduction [Difference]: Final; for HER effect: no safener, Final assessment
Method: Seeds of crops (spring wheat, TRZAS; spring barley, HORVS; maize, ZEAMA) were placed in sandy loam soil in peat pots, covered with soil and cultivated in a greenhouse under good growth conditions. Two to three weeks after sowing, the test plants were treated at the 1 to 3-leaf stage. The herbicide/safener active compound combinations according to the invention, formulated as wettable powders or emulsion concentrates, and, in parallel tests, the correspondingly formulated individual active compounds were sprayed onto the green parts of the plants in various dosages using an amount of water of 300 l/ha (converted).
The pots were returned under good growing conditions in a glasshouse and a visual assessment of herbicidal effects was made at intervals from 1 to 3 weeks after herbicide application (DAT=days after treatment). Assessment was on a percentage basis in comparison with untreated control plants (0%=no injury, 100%=complete kill).
Reduction[Difference]=herbicide damage without safener−herbicide damage with safener Reduction[%]=(Reduction[Difference]*100)/herbicide damage without safener
a) Plant Species, Variety: ZEAMA Sileno, Safener (SAF): Isoxadifen-Ethyl

ZEAMA Sileno [2] = assay: Safener seed treatment, pre-emergence herbicide, crop damage; type: in vivo, maize; set-up: key to Reduction [Difference]: % crop damage without safener minus % damage with safener; conditions: for Reduction [%] / Reduction [Difference]: isoxadifen-ethyl 0.25 g a.i./kg seed; for HER effect + SAF: isoxadifen-ethyl seed treatment 0.25 g a.i./kg seed; for HER effect: no safener
Method: For the safener seed treatment, sufficient seeds of the respective crops (spring wheat, TRZAS; spring barley, HORVS; maize, ZEAMA) were weighed into screw top glass bottles approximately twice the volume of the seeds.
The specified safeners, formulated as wettable powder (WP) were weighed out so that the specified rates (g a.i./kg seed) would be obtained, dissolved in water (1 ml water per 10 g of seeds), and added to the seeds to produce a slurry.
The bottles were capped and then placed in an overhead shaker (set at medium speed for ca. 60 minutes) so that the seeds were evenly coated with the slurry. The bottles were uncapped and the seeds were either placed on paper and dried for an interval of 3-4 hours prior to sowing, or directly sown. Seeds were placed in sandy loam soil in pots of a diameter of 7-8 cm, and covered with soil.
Pre-emergence application of the specified herbicides was done subsequently, on two sets of plants: a) seed treatment with safener, as described above
The herbicides were formulated as WP and was sprayed onto the soil surface as an aqueous suspension at an equivalent water application rate of 300 l/ha.
After application, the test plants were kept in the greenhouse under good growth conditions. At intervals up to 4 weeks after application (=28 days after treatment; DAT), % crop damage observed on the treated plants was scored visually in comparison to control plants that had not received any safener or herbicide treatment.
Values in the table below are mean values of at least 2 replicates.
Reduction[Difference]=herbicide damage without safener−herbicide damage with safener Reduction[%]=(Reduction[Difference]*100)/herbicide damage without safener […]
c) Plant Species, Variety: ZEAMA Sileno, Safener (SAF): Isoxadifen-Ethyl

[3] = HER 8 g a.i./ha + isoxadifen-ethyl 50 g a.i./ha
[4] = HER 8 g a.i./ha, isoxadifen-ethyl 50 g a.i./ha
[5] = HER 32 g a.i./ha + isoxadifen-ethyl 100 g a.i./ha
[6] = HER 32 g a.i./ha, isoxadifen-ethyl 100 g a.i./ha
[7] = HER 80 g a.i./ha pre-emergence, 14 DAT
[8] = HER 2 g a.i./ha + isoxadifen-ethyl 50 g a.i./ha
[9] = HER 2 g a.i./ha, isoxadifen-ethyl 50 g a.i./ha
[10] = HER 2 g a.i./ha, 0%=no injury, 100%=complete kill
[11] = HER 40 g a.i./ha pre-emergence, 14 DAT
[12] = HER 40 g a.i./ha pre-emergence, 26 DAT
[13] = HER 80 g a.i./ha pre-emergence, 26 DAT

Structure (SMILES)	HER effect + SAF (ZEAMA Sileno [1]; [3])	Reduction [%] (ZEAMA Sileno [1]; [4])	Reduction [Difference] (ZEAMA Sileno [1]; [4])	HER effect (ZEAMA Sileno [1]; HER 8 g a.i./ha)	HER effect + SAF (ZEAMA Sileno [1]; [5])	Reduction [%] (ZEAMA Sileno [1]; [6])	Reduction [Difference] (ZEAMA Sileno [1]; [6])	HER effect (ZEAMA Sileno [1]; HER 32 g a.i./ha)	other results
COC(=O)C1C=CC(NC(=O)C2(C)CC(c3cc(Cl)cc(C#N)c3)=NO2)C1 (mixture of isomers) [Example 1.23]	30%	40%	20	50%	30%	57%	40	70%	
C=CC1(C(=O)NC2COC(C(=O)OCCOC)C2)CC(c2cc(F)cc(F)c2)=NO1 (mixture of isomers) [Example 1.66]	43%	55%	53	96%	47%	52%	50	97%	
C=CCOC(=O)C1CC(NC(=O)C2(C)CC(c3cc(F)cc(F)c3)=NO2)CO1 (mixture of isomers) [Example 1.75]	23%	68%	50	73%	43%	51%	45	88%	
C=CC1(C(=O)NC2COC(C(=O)OCCCl)C2)CC(c2cc(F)cc(F)c2)=NO1 (mixture of isomers) [Example 1.82]	65% and 53%	28% and 43%	25 and 40	90% and 93%	75% and 55%	22% and 40%	21 and 37	96% and 92%	
C=CCOC(=O)C1CC(NC(=O)C2(C=C)CC(c3cc(F)cc(F)c3)=NO2)CO1 (mixture of isomers) [Example 1.83]	28%	55%	34	62%	20%	76%	65	85%	
COCCOC(=O)C1C=CC(NC(=O)C2(C(F)(F)F)CC(c3cc(F)cc(C#N)c3)=NO2)C1 (centres unmarked) [Example 1.2]	65%	28%	25	90%	75%	22%	21	96%	Reduction [%] (ZEAMA Sileno [2]; [7]): 78%; Reduction [Difference] (ZEAMA Sileno [2]; [7]): 35; HER effect + SAF (ZEAMA Sileno [2]; [7]): 10%; HER effect (ZEAMA Sileno [2]; [7]): 45%
CCOC(=O)C1C=CC(NC(=O)C2(C(F)(F)F)CC(c3ccccc3)=NO2)C1 (centres unmarked) [Example 1.9]	22%	72%	56	78%	22%	74%	63	85%	Reduction [%] (ZEAMA Sileno [2]; [7]): 83%; Reduction [Difference] (ZEAMA Sileno [2]; [7]): 25; HER effect + SAF (ZEAMA Sileno [2]; [7]): 5%; HER effect (ZEAMA Sileno [2]; [7]): 30%
CCOC(=O)C1C=CC(NC(=O)C2(CF)CC(c3cc(F)cc(F)c3)=NO2)C1 (centres unmarked) [Example 1.17]	20%	79%	75	95%					HER effect + SAF (ZEAMA Sileno [1]; [8]): 10%; Reduction [%] (ZEAMA Sileno [1]; [9]): 78%; Reduction [Difference] (ZEAMA Sileno [1]; [9]): 35; HER effect (ZEAMA Sileno [1]; [10]): 45%
COC(=O)C1C=CC(NC(=O)C2(C)CC(c3cc(F)cc(F)c3)=NO2)C1 (centres unmarked) [Example 1.19]	20%	50%	20	40%					
CC1(C(=O)NC2C=CC(C(=O)OCCSCc3ccccc3)C2)CC(c2cc(F)cc(F)c2)=NO1 (centres unmarked) [Example 1.27]					30%	50%	30	60%	
CN(C)C(=O)SCCOC(=O)C1C=CC(NC(=O)C2(C)CC(c3cc(F)cc(F)c3)=NO2)C1 (centres unmarked) [Example 1.29]	25%	58%	35	60%	25%	67%	50	75%	Reduction [%] (ZEAMA Sileno [2]; [7]): 33%; Reduction [Difference] (ZEAMA Sileno [2]; [7]): 20; HER effect + SAF (ZEAMA Sileno [2]; [7]): 40%; HER effect (ZEAMA Sileno [2]; [7]): 60%
CCOC(=O)C1=CCC(NC(=O)C2(C)CC(c3cccc(F)c3)=NO2)C1 (centres unmarked) [Example 1.59]					10%	85%	57	67%	
COC(=O)C1=CC(NC(=O)C2(C)CC(c3cc(F)cc(F)c3)=NO2)CC1 (centres unmarked) [Example 1.63]	40%	53%	45	85%	43%	51%	45	88%	Reduction [%] (ZEAMA Sileno [2]; [11]): 50%; Reduction [Difference] (ZEAMA Sileno [2]; [11]): 30; Reduction [%] (ZEAMA Sileno [2]; [12]): 100%; Reduction [Difference] (ZEAMA Sileno [2]; [12]): 25; HER effect + SAF (ZEAMA Sileno [2]; [11]): 30%; HER effect + SAF (ZEAMA Sileno [2]; [12]): 0%; HER effect (ZEAMA Sileno [2]; [11]): 60%; HER effect (ZEAMA Sileno [2]; [12]): 25%
C=CC1(C(=O)NC2COC(C(=O)OC)C2)CC(c2cc(F)cc(F)c2)=NO1 (centres unmarked) [Example 1.69]	33%	64%	59	92%	30%	68%	63	93%	Reduction [%] (ZEAMA Sileno [2]; [11]): 42%; Reduction [Difference] (ZEAMA Sileno [2]; [11]): 40; Reduction [%] (ZEAMA Sileno [2]; [12]): 28%; Reduction [Difference] (ZEAMA Sileno [2]; [12]): 25; HER effect + SAF (ZEAMA Sileno [2]; [11]): 55%; HER effect + SAF (ZEAMA Sileno [2]; [12]): 65%; HER effect (ZEAMA Sileno [2]; [11]): 95%; HER effect (ZEAMA Sileno [2]; [12]): 90%
C=CC1(C(=O)NC2COC(C(=O)OC)C2)CC(c2cc(F)cc(F)c2)=NO1 (centres unmarked) [Example 1.70]									Reduction [%] (ZEAMA Sileno [2]; [11]): 44%; Reduction [Difference] (ZEAMA Sileno [2]; [11]): 35; Reduction [%] (ZEAMA Sileno [2]; [12]): 53%; Reduction [Difference] (ZEAMA Sileno [2]; [12]): 45; HER effect + SAF (ZEAMA Sileno [2]; [11]): 45%; HER effect + SAF (ZEAMA Sileno [2]; [12]): 40%; HER effect (ZEAMA Sileno [2]; [11]): 80%; HER effect (ZEAMA Sileno [2]; [12]): 85%; Reduction [%] (ZEAMA Sileno [2]; [7]): 26%; Reduction [Difference] (ZEAMA Sileno [2]; [7]): 25; Reduction [%] (ZEAMA Sileno [2]; [13]): 21%; Reduction [Difference] (ZEAMA Sileno [2]; [13]): 20; HER effect + SAF (ZEAMA Sileno [2]; [7]): 70%; HER effect + SAF (ZEAMA Sileno [2]; [13]): 75%; HER effect (ZEAMA Sileno [2]; [7]): 95%; HER effect (ZEAMA Sileno [2]; [13]): 95%; HER effect + SAF (ZEAMA Sileno [1]; [8]): 35%; Reduction [%] (ZEAMA Sileno [1]; [9]): 60%; Reduction [Difference] (ZEAMA Sileno [1]; [9]): 53; HER effect (ZEAMA Sileno [1]; [10]): 88%
COC(=O)C1OCCC1NC(=O)C1(C)CC(c2cc(F)cc(F)c2)=NO1 (centres unmarked) [Example 1.92]	42%	56%	53	95%	38%	61%	59	97%	Reduction [%] (ZEAMA Sileno [2]; [11]): 93%; Reduction [Difference] (ZEAMA Sileno [2]; [11]): 70; Reduction [%] (ZEAMA Sileno [2]; [12]): 86%; Reduction [Difference] (ZEAMA Sileno [2]; [12]): 60; HER effect + SAF (ZEAMA Sileno [2]; [11]): 5%; HER effect + SAF (ZEAMA Sileno [2]; [12]): 10%; HER effect (ZEAMA Sileno [2]; [11]): 75%; HER effect (ZEAMA Sileno [2]; [12]): 70%
